Literature values, collected in US20040023969A1, “Combination of an allosteric alkyne inhibitor of matrix metalloproteinase-13 with celecoxib or valdecoxib” (priority 2002, published 2004).

SMILES: Cc1onc(-c2ccccc2)c1-c1ccc(S(N)(=O)=O)cc1 [valdecoxib, 4-(5-methyl-3-phenyl-4-isoxazolyl)-benzenesulfonamide]
- Tolerability in clinical studies (combined analysis of various clinical studies): well tolerated
- Overall upper gastrointestinal safety profile (ulcers, perforations, obstructions and GI bleeds) (compared with ibuprofen, diclofenac and naproxen): significantly better than the conventional NSAIDs studied
